Assay results from patent US20260305610A1, “TRIAZOLE COMPOUND, AND PREPARATION METHOD THEREFOR, HERBICIDAL COMPOSITION AND USE THEREOF” (QINGDAO KINGAGROOT CHEMICAL COMPOUND CO., LTD., priority 2023, published 2026).

Tested on: weeds
Assay: Activity assay of compositions: soil sealing treatment (S), fresh weight inhibition and combined effect (Gowing method)
Format: in vivo
Details: 21 d
Protocol: The required active ingredient B was purchased from a reagent company or a technical material manufacturer or synthesized by a conventional method. The technical materials were all dissolved with acetone solvents and diluted with aqueous solution of 0.1% Tween-80 emulsifier, which should be used immediately after dilution.
• Weeds were cultivated in a controllable sunlight greenhouse at 20 to 30° C., in natural light, and with relative humidity of 57% to 72%. […] The test soil was quantitatively filled to ¾ of the pot, and then watered from the bottom of the pot to completely wet the soil to saturation. The test weed seeds were accelerated to just germinate, and then evenly and quantitatively broadcasted on the soil surface, covered with 0.5-1 cm soil according to the sizes of the seeds, and ready for use 72 hours after sowing.
Each treatment was repeated 4 times. Four pots with 20 weed seeds sowed per pot were treated each time.
The well-sowed test materials were evenly placed on a platform with an area of 0.5 m^2, and foliage spraying was carried out by the 3WP-2000-type walking spray tower at a dosage of 450 kg/ha and a spray pressure of 0.3 MPa. After all the solution was sprayed, the air valve was closed. And 30 seconds later, the door of the spray tower was opened, and the nutritional bowl was taken out. Next, the air valve was opened, and the spray tube was cleaned by spraying 50 ml of water.
A method for investigating absolute numbers was employed. Whole seedlings of survival weeds were cut off along the soil surface with a blade, and the fresh weight of the weeds was weighed using an analytical balance. For dead weeds, the fresh weight thereof was zero.
The investigation was performed 21 days after the treatment for once in total.
The theoretical fresh weight inhibition rate of a mixed combination of each treatment was calculated by the Gowing method (E0=X+Y−X*Y/100). Then compared with the measured inhibition rate (E), the type of the combined effect of the combination of the two on weeds was evaluated, which was a synergistic effect when E−E0>10%; an antagonistic effect when E−E0<−10%; an additional effect when −10%≤E−E0≤10%. An optimal ratio was determined according to factors such as the actual control effects, characteristics of herbicides, balance of the formulation, etc. In the formula, X represents the fresh weight inhibition rate of the active ingredient A in a dosage of P; Y represents the fresh weight inhibition rate of the active ingredient B in a dosage of Q. The statistical results are shown in Table 4.

[1] = Amaranthus retroflexus, B 15 g a.i./ha
[2] = Amaranthus retroflexus, B 30 g a.i./ha
[3] = Eclipta prostrata, B 7.5 g a.i./ha
[4] = Eclipta prostrata, B 15 g a.i./ha
[5] = Commelina communis, B 30 g a.i./ha
[6] = Lolium multiflorum, B 300 g a.i./ha
[7] = Commelina communis, B 60 g a.i./ha
[8] = Silene conoidea, B 30 g a.i./ha
[9] = Silene conoidea, B 60 g a.i./ha
[10] = Eclipta prostrata, B 150 g a.i./ha
[11] = Eclipta prostrata, B 300 g a.i./ha
[12] = Eleocharis yokoscensis, B 150 g a.i./ha
[13] = Eleocharis yokoscensis, B 300 g a.i./ha

## CS(=O)(=O)c1ccc(C(=O)C2=C(Sc3ccccc3)C3CCC(C3)C2=O)c(Cl)c1 (stereo not shown) [Benzobicyclon]
Eclipta prostrata, B 22.5 g a.i./ha
  Control effect of B applied alone in a corresponding dose (%): 49.2%
Eclipta prostrata, B 45 g a.i./ha
  Control effect of B applied alone in a corresponding dose (%): 74.0%

## CCn1ncc(C(=O)c2ccc(S(C)(=O)=O)c(COCC(F)(F)F)c2Cl)c1OC(=O)c1cn(C)nc1C [Fenpyrazone]
[1]
  Control effect of B applied alone in a corresponding dose (%): 13.5%
[2]
  Control effect of B applied alone in a corresponding dose (%): 33.7%

## Cc1ccccc1CO[C@@H]1C[C@@]2(C(C)C)CC[C@]1(C)O2 (racemic) [Cinmethylin]
[3]
  Control effect of B applied alone in a corresponding dose (%): 51.5%
[4]
  Control effect of B applied alone in a corresponding dose (%): 72.0%

## CS(=O)(=O)c1cc(C(F)(F)F)ccc1C(=O)c1cnoc1C1CC1 [Isoxaflutole]
[1]
  Control effect of B applied alone in a corresponding dose (%): 36.7%
[2]
  Control effect of B applied alone in a corresponding dose (%): 50.3%

## CC(C)Oc1cc(-n2nc(C(C)(C)C)oc2=O)c(Cl)cc1Cl [Oxadiazon]
Solanum nigrum, B 30 g a.i./ha
  Control effect of B applied alone in a corresponding dose (%): 45.8%
Solanum nigrum, B 60 g a.i./ha
  Control effect of B applied alone in a corresponding dose (%): 53.5%

## COC(=O)c1csc(C)c1S(=O)(=O)NC(=O)n1nc(OC)n(C)c1=O [Thiencarbazone-methyl]
Commelina communis, B 15 g a.i./ha
  Control effect of B applied alone in a corresponding dose (%): 45.4%
[5]
  Control effect of B applied alone in a corresponding dose (%): 56.0%

## CCCc1ccc2nc(Cl)c(S(=O)(=O)NC(=O)Nc3nc(OC)cc(OC)n3)n2n1 [Propyrisulfuron]
[3]
  Control effect of B applied alone in a corresponding dose (%): 42.8%
[4]
  Control effect of B applied alone in a corresponding dose (%): 63.0%

## CCCN(CCC)C(=O)SCc1ccccc1 [Prosulfocarb]
[6]
  Control effect of B applied alone in a corresponding dose (%): 46.5%
Lolium multiflorum, B 600 g a.i./ha
  Control effect of B applied alone in a corresponding dose (%): 64.2%

## Cn1nc(C(F)(F)F)c(CS(=O)(=O)C2=NOC(C)(C)C2)c1OC(F)F [Pyroxasulfone]
Lolium multiflorum, B 30 g a.i./ha
  Control effect of B applied alone in a corresponding dose (%): 40.6%
Lolium multiflorum, B 60 g a.i./ha
  Control effect of B applied alone in a corresponding dose (%): 62.7%

## CCNc1nc(Cl)nc(NC(C)(C)C)n1 [Terbuthylazine]
Chloris virgata, B 225 g a.i./ha
  Control effect of B applied alone in a corresponding dose (%): 35.5%
Chloris virgata, B 450 g a.i./ha
  Control effect of B applied alone in a corresponding dose (%): 52.7%

## COC(=O)[C@@H](C)O/N=C/c1cc(-n2c(=O)cc(C(F)(F)F)n(C)c2=O)c(F)cc1Cl
[5]
  Control effect of B applied alone in a corresponding dose (%): 28.5%
[7]
  Control effect of B applied alone in a corresponding dose (%): 46.1%

## COC(=O)c1sccc1S(=O)(=O)NC(=O)Nc1nc(C)nc(OC)n1 [Thifensulfuron-methyl]
[8]
  Control effect of B applied alone in a corresponding dose (%): 47.5%
[9]
  Control effect of B applied alone in a corresponding dose (%): 62.1%

## C[C@@H](Oc1nc(F)c(Cl)c(N)c1Cl)C(=O)O
Lolium multiflorum, B 150 g a.i./ha
  Control effect of B applied alone in a corresponding dose (%): 38.4%
[6]
  Control effect of B applied alone in a corresponding dose (%): 53.7%

## CN(C(=O)COc1nc2ccccc2s1)c1ccccc1 [Mefenacet]
[10]
  Control effect of B applied alone in a corresponding dose (%): 40.6%
[11]
  Control effect of B applied alone in a corresponding dose (%): 69.7%

## CC(C)N(C)S(=O)(=O)NC(=O)c1cc(-n2c(=O)cc(C(F)(F)F)n(C)c2=O)c(F)cc1Cl [Saflufenacil]
[3]
  Control effect of B applied alone in a corresponding dose (%): 50.8%
[4]
  Control effect of B applied alone in a corresponding dose (%): 69.6%

## COc1nc(OC)nc(C(=O)c2cccc(F)c2N(C)S(=O)(=O)C(F)F)n1 [Triafamone]
[3]
  Control effect of B applied alone in a corresponding dose (%): 41.1%
[4]
  Control effect of B applied alone in a corresponding dose (%): 68.2%

## CCN(CC)C(=O)C(C)Oc1cccc2ccccc12 (stereo not shown) [Napropamide]
Descurainia sophia, B 150 g a.i./ha
  Control effect of B applied alone in a corresponding dose (%): 38.6%
Descurainia sophia, B 300 g a.i./ha
  Control effect of B applied alone in a corresponding dose (%): 55.7%

## CCNc1nc(Cl)nc(NC(C)C)n1 [Atrazine]
Chloris virgata, B 300 g a.i./ha
  Control effect of B applied alone in a corresponding dose (%): 40.1%
Chloris virgata, B 600 g a.i./ha
  Control effect of B applied alone in a corresponding dose (%): 58.9%

## CSc1nnc(C(C)(C)C)c(=O)n1N [Metribuzin]
[12]
  Control effect of B applied alone in a corresponding dose (%): 40.6%
[13]
  Control effect of B applied alone in a corresponding dose (%): 58.3%

## CCCN(CCC)c1c([N+](=O)[O-])cc(C(F)(F)F)cc1[N+](=O)[O-] [Trifluralin]
[10]
  Control effect of B applied alone in a corresponding dose (%): 45.7%
[11]
  Control effect of B applied alone in a corresponding dose (%): 67.5%

## C#CCN1C(=O)C(F)(F)Oc2cc(F)c(-n3c(=O)n(C)c(=S)n(C)c3=O)cc21 [Trifludimoxazin]
[8]
  Control effect of B applied alone in a corresponding dose (%): 44.4%
[9]
  Control effect of B applied alone in a corresponding dose (%): 66.7%

## COCc1cccc(C(O)c2nc(OC)cc(OC)n2)c1NS(=O)(=O)C(F)F (stereo not shown) [Pyrimisulfan]
[3]
  Control effect of B applied alone in a corresponding dose (%): 54.4%
[4]
  Control effect of B applied alone in a corresponding dose (%): 73.7%

## CN1C[C@H](c2cccc(C(F)(F)F)c2)[C@@H](C(=O)Nc2ccccc2F)C1=O [Tetflupyrolimet]
Monochoria vaginalis, B 7.5 g a.i./ha
  Control effect of B applied alone in a corresponding dose (%): 43.9%
Monochoria vaginalis, B 15 g a.i./ha
  Control effect of B applied alone in a corresponding dose (%): 68.1%

## CSc1nc(NC(C)C)nc(NC(C)C)n1 [Prometryn]
[12]
  Control effect of B applied alone in a corresponding dose (%): 42.1%
[13]
  Control effect of B applied alone in a corresponding dose (%): 56.9%

## CCCCOCN(C(=O)CCl)c1c(CC)cccc1CC [Butachlor]
[10]
  Control effect of B applied alone in a corresponding dose (%): 37.2%
[11]
  Control effect of B applied alone in a corresponding dose (%): 66.8%

## COC(=O)CCNC(=O)C(C)Sc1cc(-n2c(=O)cc(C(F)(F)F)n(C)c2=O)c(F)cc1Cl (stereo not shown) [Tiafenacil]
[5]
  Control effect of B applied alone in a corresponding dose (%): 48.2%
[7]
  Control effect of B applied alone in a corresponding dose (%): 61.4%

## COc1cc(OC)nc(NC(=O)NS(=O)(=O)c2c(C3=NOCC(C)O3)c(Cl)nn2C)n1 (stereo not shown) [Metazosulfuron]
[4]
  Control effect of B applied alone in a corresponding dose (%): 51.6%
Eclipta prostrata, B 30 g a.i./ha
  Control effect of B applied alone in a corresponding dose (%): 69.2%

## CCC(CC)Nc1c([N+](=O)[O-])cc(C)c(C)c1[N+](=O)[O-] [Pendimethalin]
[10]
  Control effect of B applied alone in a corresponding dose (%): 45.5%
[11]
  Control effect of B applied alone in a corresponding dose (%): 63.2%

## CCC(C)Nc1c([N+](=O)[O-])cc(C(C)(C)C)cc1[N+](=O)[O-] (stereo not shown) [Butralin]
[10]
  Control effect of B applied alone in a corresponding dose (%): 47.0%
[11]
  Control effect of B applied alone in a corresponding dose (%): 65.3%

## CS(=O)(=O)c1ccc(C(=O)C2C(=O)CCCC2=O)c(Cl)c1COCC1CCCO1 (stereo not shown) [Tefuryltrione]
Ammannia arenaria, B 7.5 g a.i./ha
  Control effect of B applied alone in a corresponding dose (%): 32.9%
Ammannia arenaria, B 15 g a.i./ha
  Control effect of B applied alone in a corresponding dose (%): 55.2%

## COP(=S)(OC)SCC(=O)N(c1ccc(Cl)cc1)C(C)(C)C [Anilofos]
Eclipta prostrata, B 75 g a.i./ha
  Control effect of B applied alone in a corresponding dose (%): 14.2%
[10]
  Control effect of B applied alone in a corresponding dose (%): 23.6%

## Cc1nn(-c2cc(NS(C)(=O)=O)c(Cl)cc2Cl)c(=O)n1C(F)F [Sulfentrazone]
Solanum nigrum, B 15 g a.i./ha
  Control effect of B applied alone in a corresponding dose (%): 48.5%
Solanum nigrum, B 30 g a.i./ha
  Control effect of B applied alone in a corresponding dose (%): 60.0%

## CCOC(=O)C1(C)CC(c2cc(-n3c(=O)cc(C(F)(F)F)n(C)c3=O)c(F)cc2Cl)=NO1 (stereo not shown) [3-[2-chloro-5-[3,6-dihydro-3-methyl-2,6-dioxo-4-(trifluoromethyl)-1(2H)-pyrimidinyl]-4-fluorophenyl]-4,5-dihydro-5-methyl-5-isoxazolecarboxylic acid ethyl ester]
[5]
  Control effect of B applied alone in a corresponding dose (%): 35.0%
[7]
  Control effect of B applied alone in a corresponding dose (%): 47.3%

## CCc1cccc(C)c1N(C(=O)CCl)[C@@H](C)COC [S-metolachlor]
Amaranthus retroflexus, B 150 g a.i./ha
  Control effect of B applied alone in a corresponding dose (%): 41.4%
Amaranthus retroflexus, B 300 g a.i./ha
  Control effect of B applied alone in a corresponding dose (%): 64.6%

## CC(C)(C)c1nn(-c2cc(OCC#N)c(Cl)cc2Cl)c(=O)o1 [Oxadiargyl]
Solanum nigrum, B 45 g a.i./ha
  Control effect of B applied alone in a corresponding dose (%): 51.2%
Solanum nigrum, B 90 g a.i./ha
  Control effect of B applied alone in a corresponding dose (%): 64.7%
